Measured values published in article PMC6934184, “Selective DNA-PKcs inhibition extends the therapeutic index of localized radiotherapy and chemotherapy” (The Journal of Clinical Investigation, 2019).

Target: T1, GSK3A (GSK3 alpha) (Homo sapiens, UniProt P49840)
T1 construct: purchased Thermo Fisher Scientific (Life Technologies) SelectScreen
Experiment: SelectScreen Z'LYTE
Assay type: biochemical
Outline: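 NU5455 was profiled across the SelectScreen Broad panel of kinase activity and binding assays. Z'LYTE reactions such as CSF1R ran at apparent Km ATP, while the Adapta CAMK1 assay used ATP listed as 10. Values are given as percent.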

T1 sequence (P49840 whole entry): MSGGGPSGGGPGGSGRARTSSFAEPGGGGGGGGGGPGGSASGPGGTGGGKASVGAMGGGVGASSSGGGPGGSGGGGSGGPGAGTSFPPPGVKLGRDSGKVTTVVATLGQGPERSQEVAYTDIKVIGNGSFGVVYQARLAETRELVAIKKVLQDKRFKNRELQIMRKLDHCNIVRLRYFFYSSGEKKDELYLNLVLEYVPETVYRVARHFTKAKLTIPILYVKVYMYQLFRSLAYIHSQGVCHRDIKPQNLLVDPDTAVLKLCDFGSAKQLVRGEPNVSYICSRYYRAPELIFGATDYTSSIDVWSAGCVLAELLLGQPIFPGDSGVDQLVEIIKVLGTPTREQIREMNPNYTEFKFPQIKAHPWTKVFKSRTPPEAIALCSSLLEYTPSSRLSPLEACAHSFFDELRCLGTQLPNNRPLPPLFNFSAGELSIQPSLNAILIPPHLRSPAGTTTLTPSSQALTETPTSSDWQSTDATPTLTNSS

Question: For `CN(C(=O)CN1CCOCC1)c1ccc2sc3c(-c4cccc5c(=O)cc(N6CC7CCC(C6)O7)oc45)cccc3c2c1` [NU5455], which inhibition at 1 µM is on record?
Answer: -5.5%
